Among the data in US8772305B2, “Substituted pyridinyl-pyrimidines and their use as medicaments” (Boehringer Ingelheim International GmbH, priority 2011, dated 2014) are IC50 values, retold here.

The target of the assay is Recombinant human Syk (amino acids 342-635), GST-Syk kinase fusion protein (Homo sapiens (Human), UniProt P43405). The experiment in a line: In vitro Syk kinase test (Kinase Glo luminescence). The conditions noted are these: read-out: SYK Enzyme IC50, GST-Syk 4 nM, ATP remaining after 60 min at room temperature.

Procedure: The catalytic activity of the GST-Syk kinase fusion protein was determined using the Kinase Glo® Luminescence Kinase test (Promega; V6712). In this homogeneous test the amount of ATP remaining after the kinase reaction is quantified by a luciferin-luciferase reaction using luminescence. The luminescence signal obtained correlates with the amount of ATP still present and thus correlates inversely with the activity of the protein kinase.
GST-Syk was diluted to 6.0 nM in the test buffer and 10 μl of this dilution were used in the kinase test (final concentration of Syk=4 nM in a total volume of 15 μl). […]
After 60 minutes, 10 μl Kinase-Glo® solution (Promega, Cat. #V6712) (heated to room temperature) were added to each well and incubation was continued for a further 15 minutes. The plates were read in a Microplate Scintillation and Luminescence Counter (Canberra Packard GmbH). […]
The output file of the “Counter” is a text file that contains the well number and measured counts in two columns. […] Based on this values the % inherent value for the measurement of each substance concentration was calculated using an “MS-Excel—VB macro”. […] The IC50 values were calculated from the % inhibition values using “GraphPadPrism” software (Version 5) (GraphPad Software Inc.).

On to `CNC(=O)c1c[nH]c2ccc(Nc3nccc(-c4ccccn4)n3)cc12` [Example 284], for which the IC50 came out at 17.7 nM.

For orientation: IC50 means the concentration needed to halve the response being measured.
